# Source: US9497963B2, “Methods and compositions for control of gypsy moth, Lymantria dispar” (Simon Fraser University, priority 2008, dated 2016)
# Key:
# Set-up in all cases: species or system Lymantria dispar
# [1] = test system: L. dispar PBP 1; assay: Pheromone-binding protein (PBP) ligand binding assay, PBP1; details: member tested within library 3c{4, 1-5}
# Description: A. The protein and ligand are incubated in buffer overnight. B. For half of the incubation mixture, the free ligand (L) is separated from the protein-bound ligand (P.L) by size-exclusion chromatography on P2 Gel (BioRad, exclusion limit 2000 Da). The protein elutes from the small column bed, with its ligand bound (see Examples and […] et al. 2000; Staddon and Everton 1980), while the free ligand is retained on the column ([…] et al. 2000). C. […] The extract from the filtrate (B) contains the protein-bound ligand and the extract from the incubation mixture (A) contains all the ligand (bound and free) present in the aqueous phase. The extracts are analyzed by GC-MS, to obtain values for total ligand in solution (L+P.L) and for protein-bound ligand (P.L). These can then be used to calculate % bound (Table 3). These assays were performed as described in FIG. 3 and as follows: L. dispar PBP 1 or PBP 2 was incubated with the test compound or mini-library. The PBP and the ligand(s) (L) were left to equilibrate (eq 2) overnight. The non-bound ligand was then separated from the protein-bound material (PBP.L) by size-exclusion chromatography. By determining the total ligand in solution at equilibrium (eq. 3) and the protein-bound ligand, it is possible to estimate the percentage of ligand bound to the protein at equilibrium (eq. 4). […] This binding assay has been validated extensively in previous studies ([…] et al. 2000). The components of each mini-library separated cleanly by GC, so it was possible to monitor binding of individual components. PBP+L⇄PBP·L (eq. 2) [L]tot=[L]+[PBP·L] (eq. 3) % bound=100×[PBP·L]/[L]tot (eq. 4) Results: The members of each mini-library separated cleanly by GC, therefore it was possible to monitor binding of individual members to PBP1 or PBP2, the two known PBPs in the gypsy moth, by extraction from the aqueous incubation mixture, followed by GC analysis of the extract (FIG. 3).
# [2] = test system: male gypsy moth antenna; assay: Coupled gas chromatographic-electroantennographic detection (GC-EAD); details: EAD peak size and shape (sharp/broad)
# Description: In GC-EAD assays, the analyte is processed by gas chromatography (GC). The column effluent is split, such that molecules of each chromatographic peak arrive simultaneously at the flame ionization detector of the GC and at an anectomized but otherwise intact insect antenna as the biological detector. This procedure detects specific compounds in the analyte that elicit an electrical potential from the antenna.
# For GC-EAD recordings, an antenna was carefully dislodged from a male moth's head, and the antennal base placed into the opening of a glass capillary electrode (0.58 mm ID×65 mm length) (A-M Systems, Inc., Carlsborg, Wash., USA) filled with saline solution. The tip of the antenna was removed by spring microscissors (Fine Science Tools Inc., North Vancouver, British Columbia, Canada) and then placed into the opening of the recording electrode mounted on a portable micromanipulator and positioned in front of a constant stream of warm air (Praxair Canada Inc., Mississauga, Ontario, Canada) which delivered the GC column eluent. […] Identical retention times of compounds detected by the flame ionization detector of the GC and by the insect antenna allowed assignment of antennal responses to specific compounds in the eluent.
# [3] = test system: male gypsy moth antenna response to pheromone (+)-1; assay: EAG short-term (STI) and long-term (LTI) inhibition of pheromone signaling (Example 5); details: for inhibition at 0.001 mg / inhibition at 0.01 mg / inhibition at 0.1 mg / inhibition at 100 µg, 0.1 mg: Lymantria dispar, mean ± S.E.; for inhibition at 0.001 mg: mixed plume (+)-1 100 ng + compound 1 μg; for inhibition at 0.001 mg / inhibition at 0.01 mg / inhibition at 0.1 mg: negative = enhancement, read-out: Activity (%): short-term inhibition (STI); for inhibition at 0.01 mg: mixed plume (+)-1 100 ng + compound 10 μg; for inhibition at 0.1 mg: mixed plume (+)-1 100 ng + compound 100 μg (puff v); for inhibition at 100 µg, 0.1 mg: pure (+)-1 100 ng plume following mixed plume with 100 μg compound, read-out: Activity (%): long-term inhibition (LTI)
# Description: The puffs are numbered i-vi and were: i=air, ii=pure pheromone (+)-disparlure, (+)-1, (100 ng), iii-v=disparlure mixed with the test compound, the latter at three different doses, vi=pure (+)-1. Depolarizations from the resting potential are labeled d; hyperpolarizations seen during the recovery phase after a puff are labeled r. Subscripts refer to the puff number. FIG. 5A. Typical trace for compound 3c{2,3}. FIG. 5B. Typical trace for compound 3a{4,4}.
# For other compounds, EAG traces were recorded as follows: a fully dislodged antenna from a male gypsy moth was mounted on the end of a reference electrode (a glass capillary with a silver wire, filled with buffered saline: 5 mM NaH2PO4, 10 mM Na2SO4, 4.5 mM KHCO3, 18 mM MgCl2, 4 mM CaCl2, 6 mM KCl, the pH is adjusted to 6.8 using 5 mM Na2HPO4). The tip of the antenna was severed with microscissors and placed in the recording electrode, which was mounted on a micromanipulator. A constant stream of air, that had been purified (charcoal filter), was blown over the antenna at a rate of 300 mL/min. Test samples were delivered through a stimulus delivery tube with a side opening 2 cm from the distal opening. The proximal end of the delivery tube was connected to a controlled stimulus delivery apparatus (Stimulus controller CS-05 Syntech Research and Equipment, NL 1200BM, Hilversum, The Netherlands). The distal end of the delivery tube pointed at the antenna (1 cm from the antenna). The side opening was connected to a cartridge fashioned from a Pasteur pipette which contained a small filter paper (Whatman No. 1) with the stimulus. These pipette cartridges could be prepared a few days in advance and stored at −80° C. wrapped in Al foil and in sealable plastic bags. Sample cartridges were mounted once they had reached room temperature. The stimulus delivery apparatus delivered a second stream of air (a puff) through the Pasteur pipette at a velocity of 600 mL/min, at a specified point in time, for 0.3 s. Receptor potentials of the antennae in response to test stimuli were recorded with a Syntech IDAC probe, amplifier and interfaced board, and were analyzed with EAG Syntech Software Version 2.4 (1996). See FIG. 4 for a representative EAG trace. The EAG traces were evaluated as follows (see FIG. 5).
# The net depolarizations, d(net) (in mV), of puffs ii-vi,d(sample), (corrected for the depolarization with clean air, d(air)) d(net)=d(sample)−d(air) (Eq. 1)
# The percentage short-term inhibition for each compound (STI(compound)) of puffs iii-v, relative to the first pure pheromone puff (ii) STI(compound)=100×(d(net)(ii)−d(net)(compound))/d(net)(ii) (Eq. 2)
# c) the percentage long-term inhibition for each compound (LTI(compound)) of the pure pheromone puff that followed the last mixed puff (vi) relative to the first pure pheromone puff (ii) LTI(compound)=100×(d(net)(ii)−d(net)(vi))/d(net)(ii) (Eq. 3)
# The compounds we tested gave weak or no olfactory responses by themselves in electroantennogram (EAG) experiments. The EAG trace reflects the change in the potential across the antenna when an air puff with an odorant is passed over the antenna. To understand the agonistic or antagonistic effect of the compounds on pheromone responses by male moth antennae, four types of EAG experiment were conducted. First, the response of the antenna elicited by a stimulus of pure (+)-1 was compared to the responses elicited by blends of (+)-1 with the test compound (FIG. 5). […] This effect was termed short-term inhibition (STI). […] Second, the time decay and dose responses for LTI activities were studied. Third, the strongest inhibitors were tested for their ability to cause LTI by themselves.
# This experiment explored the agonistic or antagonistic activity of the synthetic aromatic compounds (Scheme 1 and eugenol and alkyl eugenols) with the gypsy moth pheromone (+)-1. […]
# [4] = test system: response of L. dispar antennae to (+)-disparlure; assay: Competitive electroantennogram (EAG) screen, inhibition of response to (+)-disparlure (Example 4); details: Lymantria dispar, means ± S.E.; for inhibition at 0.001 mg: dose 1 μg on cartridge; for inhibition at 0.01 mg: dose 10 μg on cartridge; for inhibition at 0.1 mg: dose 100 μg on cartridge
# Description: In this assay, libraries and individual compounds are tested for their ability to inhibit the antennal response to the sex attractant pheromone of the gypsy moth, (7R,8S) 2-methyl-7,8-epoxyoctadecane, also known as (+)-disparlure. The controls consisted of a puff of clean air (negative) or of air passed over a cartridge impregnated with (+)-disparlure (100 ng) (positive). The treatments consisted of 100 ng of (+)-disparlure in combination with a compound or library at 1, 10 or 100 μg, on a cartridge over which the air puff was passed. The small arrows above the trace denote the times where the air was puffed over the antenna.
# For some compounds, such as the para Compounds 2c{n}, 2c{n,n} and libraries 3c{n,1-5}, EAG competitive assays were performed to investigate whether the diethers inhibit the response of L. dispar antennae to the main component of the sex attractant pheromone cis-(7R,8S)-epoxy-2-methyloctadecane [(+)-disparlure] (FIG. 4). For EAGs a male moth antenna was mounted and placed in front of a stimulus-delivery glass tubing (160×5 mm ID) with a side orifice (2 mm diam) near (2 cm) the distal opening. The tubing was connected to one port of an apparatus (Stimulus Controller CS-05, Syntech Research and Equipment, NL-1200BM Hilversum, The Netherlands) that generated a constant stream of clean air (300 ml/min). The second port of the apparatus was connected to a Pasteur pipette inserted through the side orifice of the stimulus-delivery tubing. The test stimulus was applied to a disc of Whatman #1 filter paper inside the Pasteur pipette and was discharged through a 0.3-sec pulse of air (600 ml/min) Receptor potentials of the antennae in response to test stimuli were recorded with a Syntech IDAC probe, amplifier and interfaced board, and were analyzed with EAG Syntech Software Version 2.4 (1996) Inhibition (%) was calculated as: % inhibition=(Dd−Ds)/Dd×100 (eq. 1)
# Where Dd is the depolarization observed with pure disparlure (corrected for clean air background) and Ds is the depolarization with disparlure+sample. See FIG. 4 for a representative EAG inhibition assay trace.
Structure (SMILES),PBP1 (% bound) [1] [%],GC-EAD activity [2],inhibition at 0.001 mg [3] [%],inhibition at 0.01 mg [3] [%],inhibition at 0.1 mg [3] [%],"inhibition at 100 µg, 0.1 mg [3] [%]",inhibition at 0.001 mg [4] [%],inhibition at 0.01 mg [4] [%],inhibition at 0.1 mg [4] [%],short-term effect on antennal pheromone response (in words) [3]
"CCCCOc1ccc(OCCC(C)C)cc1 [3c{4,5}, 1-butoxy-4-(3-methyl-butyloxy) benzene]",4 ± 0.4,None,,,,,,,,
"CCCOc1ccc(O)cc1 [2c{3}, 4-Propoxy phenol]",,None,7 ± 31,29 ± 34,38 ± 12,-8 ± 7,17 ± 14,43 ± 14,35 ± 12,
"CC(C)CCOc1ccc(O)cc1 [2c{5}, 4-(3-Methyl-butyloxy) phenol]",,None,47 ± 14,77 ± 7,49 ± 7,2 ± 4,38 ± 17,38 ± 27,19 ± 20,antagonistic
"C=CCOc1ccccc1O [2a{6}, 2-Allyloxy phenol]",,None,-63 ± 62,-33 ± 40,-31 ± 71,16 ± 8,,,,
"CCOc1ccc(O)cc1 [2c{2}, 4-Ethoxy phenol]",,None,-3 ± 4,55 ± 5,47 ± 5,7 ± 4,49 ± 10,64 ± 9,45 ± 8,
"CCCOc1cccc(OCCC)c1 [3b{3,3}, 1,3-Dipropoxy benzene]",,None,36 ± 11,1 ± 26,-2 ± 34,45 ± 12,,,,
"CCOc1ccccc1O [2a{2}, 2-Ethoxy phenol]",,None,42 ± 12,26 ± 12,58 ± 11,6 ± 4,,,,
"COc1ccc(O)cc1 [2c{1}, 4-Methoxy phenol]",,None,8 ± 12,21 ± 20,-16 ± 25,10 ± 7,10 ± 5,55 ± 11,43 ± 12,
"C=CCOc1ccc(OCC=C)cc1 [3c{6,6}, 1,4-Diallyloxy benzene]",,Trace,-6 ± 10,45 ± 6,41 ± 8,4 ± 6,,,,
"COc1cccc(OC)c1 [3b{1,1}, 1,3-Dimethoxy benzene]",,Trace,25 ± 18,9 ± 40,44 ± 36,1 ± 8,,,,
"CC(C)CCOc1cccc(O)c1 [2b{5}, 3-(3-Methyl-butyloxy) phenol]",,None,-87 ± 63,-111 ± 78,-9 ± 58,4 ± 7,,,,
"C=CCOc1ccc(O)cc1 [2c{6}, 4-Allyloxy phenol]",,None,19 ± 10,42 ± 8,46 ± 10,24 ± 8,,,,
"CC(C)CCOc1cccc(OCCC(C)C)c1 [3b{5,5}, 1,3-Di-(3-methyl-butyloxy) benzene]",,None,41 ± 13,-38 ± 41,-51 ± 51,9 ± 9,,,,
